Data reported in patent US10526322B2, “Inhibitors of kidney-type glutaminase, GLS-1” (CORNELL UNIVERSITY, priority 2014, dated 2020).
Changes are numbered by the printed parent chain.

Key:
[1] = target: T1, monomeric GAC (D391K, K316E, R459E) (Mus musculus, UniProt D3Z7P3, D391K/K316E/R459E); test: 968 binding to GAC mutants, quenching of 488 fluorescence; details: 10 nM total monomer
T1 construct: (residues 72-603) was cloned into a pET23a vector; His-tag with thrombin cleavage site (N); made in house
T1 sequence (D3Z7P3 72-603 isoform D3Z7P3-2 K316E/D391K/R459E): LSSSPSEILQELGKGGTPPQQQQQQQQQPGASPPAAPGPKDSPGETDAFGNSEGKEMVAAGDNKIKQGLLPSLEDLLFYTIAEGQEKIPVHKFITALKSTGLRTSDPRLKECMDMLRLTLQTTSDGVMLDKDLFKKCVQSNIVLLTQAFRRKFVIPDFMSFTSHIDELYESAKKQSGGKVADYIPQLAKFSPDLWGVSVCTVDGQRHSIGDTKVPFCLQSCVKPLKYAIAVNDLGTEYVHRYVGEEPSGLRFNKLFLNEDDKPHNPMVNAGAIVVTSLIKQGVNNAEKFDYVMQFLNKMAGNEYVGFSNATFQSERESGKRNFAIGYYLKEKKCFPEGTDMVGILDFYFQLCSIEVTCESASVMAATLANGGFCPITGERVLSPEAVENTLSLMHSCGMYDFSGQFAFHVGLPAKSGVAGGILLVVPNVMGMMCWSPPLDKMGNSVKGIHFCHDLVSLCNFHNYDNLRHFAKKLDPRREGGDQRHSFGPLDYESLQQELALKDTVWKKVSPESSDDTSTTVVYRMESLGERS
Procedure: Real-time fluorescence monitoring of 968 binding and GAC activity through production of NADH was performed on a Varian Cary Eclipse Fluorometer, whereas small molecule inhibition and binding titrations were performed in a 96-well format in a Tecan Saphire absorbance and fluorescence plate reader. Samples for monitoring real-time binding of 968 to 488-GAC were prepared by adding 10 μL of varying concentrations of 968 prepared in DMSO to an equilibrated 1 mL sample of 10 nM 488-GAC, while observing 488 fluorescence (490 nm excitation/520 nm emission). […] WT GAC (10 nM) was added and allowed to equilibrate 2 minutes before monitoring the fluorescence emission of 488-GAC (490 nm excitation, 520 nm emission) and NADH (340 nm excitation, 490 nm emission). […] The activity of GAC was measured in a coupled assay, by monitoring the NADH produced by glutamate dehydrogenase, which converts the product of the glutaminase-catalyzed reaction, glutamate, to α-ketoglutarate and ammonia by reducing NAD+ to NADH. Because solutions containing glutamine undergo non-enzymatic degradation to glutamate, samples were further analyzed by […] under identical experimental conditions. […]

[2] = target: T2, GAC (Mus musculus, UniProt D3Z7P3); test: Real-time GAC enzyme activity assay coupled to glutamate dehydrogenase (NADH fluorescence); format: biochemical
T2 construct: (residues 72-603) was cloned into a pET23a vector; His-tag with thrombin cleavage site (N, cleaved yes); made in house
T2 sequence (D3Z7P3 72-603 isoform D3Z7P3-2): T1 sequence (D3Z7P3 72-603 isoform D3Z7P3-2 K316E/D391K/R459E) with E245K, K320D, E388R

Q: `CN(C)c1ccc(C2Nc3ccc4ccccc4c3C3=C2C(=O)CC(C)(C)C3)cc1Br` (stereo not drawn) [Compound 968] was tested. Which “affinity for 968 compared with WT 488-GAC and dimeric GAC (D391K)” value [1] did it give?
A: highest affinity

Q: And the “potency of inhibition of GAC activity” value ([2]; GAC concentration decreased from 50 nM to 5 nM)?
A: greater potency

Q: And the “inhibition of enzyme activity” value ([2]; GAC preincubated with inorganic phosphate (50 mM Pi) before 968)?
A: much less effective
